Measurements from patent US8742106B2 (Novartis AG, priority 2009, dated 2014).

Experiments:
human orexin 1 receptors [1] = target: T1, human orexin 1 receptors (Homo sapiens (Human), UniProt O43613); assay: Radioligand Binding Assay I ([125I]orexin A competition, cell membranes); conditions: read-out: binding I hOx1R Kd
Experimental: (§1) Radioligand Binding Assay I
(§2) For crude cell membrane preparations, cells (CHO, Chinese hamster ovary or HEK, human embryonic kidney) expressing human orexin 1 or human orexin 2 receptors, were washed with HEPES (10 mM, pH 7.5), scraped off the culture plates with the same buffer, and centrifuged at 4° C. for 5 min at 2500×g. The cell pellet was either stored at −80° C. or used directly. Before the experiments, cell membranes were re-suspended in binding assay buffer (10 mM HEPES, 0.5% (w/v) bovine serum albumin, pH 7.5) by homogenisation with a Polytron homogeniser at 50 Hz for 20 s. Cell membranes were also used as made available by commercial providers.
(§3) In initial saturation experiments (to calculate Bmax), cell homogenates (150 μl) were incubated with 25-300 pM of the radioligand ([^125I]orexin A, 50 μl), 8 concentrations in triplicates in the presence or absence Orexin A (1 μM, 50 μl) to define non specific binding. Bound radioactivity was measured, and data were analysed with the program XLFIT or Graphpad Prism. Protein concentration was determined according to the Bradford/BioRad Protein Assay Kit.
(§4) In competition experiments, cell homogenates (150 μl) were incubated in assay buffer (10 mM HEPES, pH 7.5, 0.5% (w/v) bovine serum albumin, 5 mM MgCl2, 1 mM CaCl2, and tween 0.05%) for 1 h at room temperature with about 100 pM of the radioligand ([^125I]orexin A, 2100 Ci/mmole, 50 μl), and with various concentrations of compounds of the invention (50 μl) in triplicates; non-specific binding was determined in the presence of Orexin A (1 μM). Reactions were terminated by vacuum filtration, 3 washes of ice cold wash buffer (Tris-HCl pH 7.4/10 mM, with NaCl 154 mM).

human orexin 2 receptors [2] = target: T2, human orexin 2 receptors (Homo sapiens (Human), UniProt O43614); assay: as above; conditions: read-out: binding I hOx2R Kd
T2 sequence (O43614 whole entry): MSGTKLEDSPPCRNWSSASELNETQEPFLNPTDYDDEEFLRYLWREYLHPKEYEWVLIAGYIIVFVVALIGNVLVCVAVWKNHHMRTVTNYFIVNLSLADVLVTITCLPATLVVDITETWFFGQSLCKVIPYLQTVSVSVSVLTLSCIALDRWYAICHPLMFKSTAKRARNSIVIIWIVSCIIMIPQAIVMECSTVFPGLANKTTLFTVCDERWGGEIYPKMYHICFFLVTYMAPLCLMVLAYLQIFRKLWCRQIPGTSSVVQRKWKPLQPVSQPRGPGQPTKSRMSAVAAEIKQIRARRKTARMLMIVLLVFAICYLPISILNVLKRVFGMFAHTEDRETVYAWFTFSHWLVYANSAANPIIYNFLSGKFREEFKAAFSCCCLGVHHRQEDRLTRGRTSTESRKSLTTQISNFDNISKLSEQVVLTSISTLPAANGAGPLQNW
Experimental: as §1, §2, §3, §4

human orexin 1 receptors [3] = target: T1, human orexin 1 receptors; assay: Calcium Accumulation in Cells (FLIPR), antagonism of orexin A; format: cell-based; conditions: antagonism of orexin A, Cheng-Prusoff corrected; read-out: FLIPR hOx1R Ki
human orexin 2 receptors [4] = target: T2, human orexin 2 receptors; assay: as above; format: cell-based; conditions: antagonism of orexin A, Cheng-Prusoff corrected; read-out: FLIPR hOx2R Ki
How it was run: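 Cells expressing human orexin 2 receptor, loaded with Fluo4-AM (2 μM) plus probenecid (0.1 mM) for 1 h, then washed. Antagonism read as inhibition of the orexin A calcium fluorescence signal (FLIPR).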

human orexin 1 receptors [5] = target: T1, human orexin 1 receptors; assay: Radioligand Binding Assay II ([3H]-SB649868 competition, cell membranes); conditions: read-out: binding II hOx1R Kd
How it was run: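 Membranes from CHO or HEK cells expressing human orexin 1 or orexin 2 receptors incubated 1 h at room temperature with about 1 nM [3H]-SB649868 and compound (triplicates) in HEPES pH 7.5 buffer with BSA, MgCl2, CaCl2, tween. Nonspecific binding defined with 10 μM almorexant; filtration read-out, Kd reported.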

human orexin 2 receptors [6] = target: T2, human orexin 2 receptors; assay: as above; conditions: read-out: binding II hOx2R Kd
How it was run: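 Competition binding used membranes from CHO or HEK cells expressing human orexin 2 receptor, incubated 1 h at room temperature with ~1 nM [3H]-SB649868 in 10 mM HEPES pH 7.5, 0.5% BSA, 5 mM MgCl2, 1 mM CaCl2, 0.05% tween. Nonspecific binding was defined with 10 μM almorexant, and bound activity was measured after filtration.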

T1 sequence (O43613 whole entry): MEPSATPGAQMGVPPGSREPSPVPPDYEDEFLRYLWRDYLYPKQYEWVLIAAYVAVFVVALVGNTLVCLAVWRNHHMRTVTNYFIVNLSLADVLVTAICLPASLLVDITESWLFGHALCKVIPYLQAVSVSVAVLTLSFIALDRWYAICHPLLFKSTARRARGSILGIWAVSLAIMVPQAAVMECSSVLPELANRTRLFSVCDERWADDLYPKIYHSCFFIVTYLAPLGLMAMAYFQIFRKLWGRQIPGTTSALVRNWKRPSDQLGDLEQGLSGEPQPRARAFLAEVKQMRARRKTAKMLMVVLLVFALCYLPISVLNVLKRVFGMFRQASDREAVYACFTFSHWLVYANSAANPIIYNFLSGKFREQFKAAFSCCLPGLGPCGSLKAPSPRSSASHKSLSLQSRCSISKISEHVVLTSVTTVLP

SMILES	Kd (human orexin 1 receptors [1]) [µM]	Kd (human orexin 2 receptors [2]) [µM]	Ki (human orexin 1 receptors [3]) [µM]	Ki (human orexin 2 receptors [4]) [µM]	melting point [°C]	Kd (human orexin 1 receptors [5]) [µM]	Kd (human orexin 2 receptors [6]) [µM]
Cn1nc(-c2ccccc2)c2c(C(F)(F)F)cc(OCC(=O)N[C@H]3CCc4ccccc43)nc21 [Example 1.3, (S)—N-(2,3-dihydro-1H-inden-1-yl)-2-(1-methyl-3-phenyl-4-(trifluoromethyl)-1H-pyrazolo[3,4-b]pyridin-6-yloxy)acetamide]	0.348	0.128	0.211	0.069	203 to 205.2		
COc1ccc([C@H](C)NC(=O)COc2cc(C(F)(F)F)c3c(-c4ccccc4)nn(C)c3n2)cc1 [Example 1.4, (S)—N-(1-(4-methoxyphenyl)ethyl)-2-(1-methyl-3-phenyl-4-(trifluoromethyl)-1H-pyrazolo[3,4-b]pyridin-6-yloxy)acetamide]	0.008	0.004	0.014	0.002	172 to 174	0.007	0.003
C[C@H](CNC(=O)COc1cc(C(F)(F)F)c2c(-c3ccccc3)nn(C)c2n1)c1ccccc1 [Example 1.5, (S)-2-(1-methyl-3-phenyl-4-(trifluoromethyl)-1H-pyrazolo[3,4-b]pyridin-6-yloxy)-N-(2-phenylpropyl)acetamide]	1.15	0.076	0.87	0.036	91 to 93		
Cc1n[nH]c(C)c1[C@H](C)NC(=O)COc1cc(C(F)(F)F)c2c(-c3ccccc3)nn(C)c2n1 [Example 1.6, (S)—N-(1-(3,5-dimethyl-1H-pyrazol-4-yl)ethyl)-2-(1-methyl-3-phenyl-4-(trifluoromethyl)-1H-pyrazolo[3,4-b]pyridin-6-yloxy)acetamide]					145 to 147		
C[C@H](NC(=O)COc1ccc2c(-c3ccccc3)nn(C)c2n1)c1ccccc1 [Example 2.1, (S)-2-(1-methyl-3-phenyl-1H-pyrazolo[3,4-b]pyridin-6-yloxy)-N-(1-phenylethyl)acetamide]			0.492	0.865	55 to 56		
